From patent US10221163B2 (priority 2015, dated 2019) come the findings set out here.

Data set [1] relates to Escherichia coli expressing NDM-1 (CLB30005, CLB30016). It counts as cell-based. The following applies: with imipenem 1 μg/ml; for Escherichia coli expressing NDM-1 (CLB30016) MITC95: 95% inhibition of bacterial growth; for Escherichia coli MITC95: NDM-1 strain, 95% inhibition of growth. An outline of the steps:
(§1)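 Clinical strains grown overnight on blood agar at 35°C, colonies suspended in saline, diluted 1:100 into 1.1×CAMHB. Test compound titrated with imipenem at 1 μg/ml; incubated 22–24 h at 35°C, growth read by absorbance.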

Data set [2] has as its system Serratia marcescens expressing IMP-1 (CL5741). The format is cell-based. The following applies: for Serratia marcescens expressing IMP-1 (CL5741) MITC95: with imipenem 1 μg/ml, 95% inhibition of bacterial growth; for Serratia marcescens MITC95: IMP-1 strain CL5741, with imipenem 1 μg/ml, 95% inhibition of growth. An outline of the steps: as §1
Data set [3] has as its system Klebsiella pneumoniae expressing VIM-1 (IHMA599644). The format is cell-based. The following applies: for Klebsiella pneumoniae expressing VIM-1 (IHMA599644) MITC95: with imipenem 1 μg/ml, 95% inhibition of bacterial growth; for Klebsiella pneumoniae MITC95: VIM-1 strain IHMA599644, with imipenem 1 μg/ml, 95% inhibition of growth. An outline of the steps:
as §1

Data set [4] concerns Pseudomonas aeruginosa efflux− (MB9799), IMP-1. The format is cell-based. The following applies: C, D serine β-lactamase inhibitor closely related to relebactam; for P. aeruginosa expressing IMP-1, efflux − (MB9799) MITC95: concentration restoring susceptibility to imipenem at 2 μg/mL in the presence of a class A; for Concentration of metallo-β-lactamase inhibitor which restores susceptibility of efflux − (MB9799) strain to imipenem: imipenem at 2 μg/mL, in the presence of a class A. An outline of the steps:
(§2)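 PAO1 pair, broth microdilution; fixed β-lactam (imipenem/ceftazidime) at ~CLSI breakpoint + fixed class A/C BLI for AmpC; serial MBLi titration; endpoint = MBLi conc. restoring susceptibility; MB9798:MB9799 ratio = efflux liability.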

In data set [5] the test system is Pseudomonas aeruginosa efflux+ (MB9798), IMP-1. It counts as cell-based. Also on record: Concentration of metallo-β-lactamase inhibitor which restores susceptibility of efflux + (MB9798) strain to imipenem: unit not given here. The settings on record: C, D serine β-lactamase inhibitor closely related to relebactam; for P. aeruginosa expressing IMP-1, efflux + (MB9798) MITC95: concentration restoring susceptibility to imipenem at 2 μg/mL in the presence of a class A; for Concentration of metallo-β-lactamase inhibitor which restores susceptibility of efflux + (MB9798) strain to imipenem: imipenem at 2 μg/mL, in the presence of a class A. The gist of the method:
as §2

Data set [6] has as its system Pseudomonas aeruginosa MB9798 vs MB9799. The settings on record: ratio MITC95 PA_9798/MITC95 PA_9799. An excerpt: The strain background was Pseudomonas aeruginosa PAO1.
The strain set was then used as a pair to determine the effect of metallo-β-lactamase inhibitors of Formula I on the MIC of imipenem and/or ceftazidime. A fixed concentration of antibiotic was included in standard microbroth MIC tests, usually at the CLSI (Clinical and Laboratory Standards Institute) breakpoint concentration. A fixed amount of a class A/C beta-lactamase inhibitor was also included to inhibit the resident Pseudomonas AmpC enzyme. A serial titration of the metallo-β-lactamase inhibitor was included and the concentration of metallo-β-lactamase inhibitor which restores susceptibility of the strain to the included antibiotic was recorded. That concentration of metallo-β-lactamase inhibitor was then compared between the two strains to determine the fold difference between the efflux+ (MB9798) and efflux− (MB9799) strains. This was taken as an indication of the extent to which the MBLi is subject to efflux.

A further data set deals with IMP-1 (Serratia marcescens, UniProt P52699). The data set can be described thus: biochemical. The format is biochemical. The settings on record: fluorescence assay, CCF2-FA substrate, 2 pM enzyme, 2 hours at 25° C.; read-out: IMP-1 IC50. The gist of the method: (§3)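 Inhibitor was mixed with the metallo-β-lactamase and CCF2-FA. After 2 hours at 25° C, fluorescence of the coumarin–fluorescein cephalosporin substrate was read. IC50 was calculated with a 4-parameter fit.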
Chain of IMP-1 (P52699 whole entry, looked up, species assumed): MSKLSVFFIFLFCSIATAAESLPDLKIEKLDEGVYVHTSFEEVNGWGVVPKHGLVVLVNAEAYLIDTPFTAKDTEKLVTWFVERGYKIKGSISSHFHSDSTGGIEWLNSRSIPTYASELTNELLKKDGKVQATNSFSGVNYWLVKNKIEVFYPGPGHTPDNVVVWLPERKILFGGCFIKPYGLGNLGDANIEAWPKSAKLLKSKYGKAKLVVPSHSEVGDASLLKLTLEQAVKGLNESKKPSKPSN

Another data set concerns the target NDM-1 (Klebsiella pneumoniae, UniProt C7C422). The data set can be described thus: biochemical. The format is biochemical. The settings on record: fluorescence assay, CCF2-FA substrate, 1 pM enzyme, 2 hours at 25° C.; read-out: NDM-1 IC50. An outline of the steps: as §3
The next data set deals with VIM-1 (Pseudomonas aeruginosa (strain ATCC 15692 / DSM 22644 / CIP 104116 / JCM 14847 / LMG 12228 / 1C / PRS 101 / PAO1), UniProt A0A0F7KYQ8). Description: biochemical. The following applies: fluorescence assay, CCF2-FA substrate, 30 pM enzyme, 2 hours at 25° C.; read-out: VIM-1 IC50. The protocol: Enzyme Activity: Determination of IC50
The Class B enzyme activities were measured in the presence of the test inhibitor in a fluorescence assay against a commercially available substrate consisting of a cephalosporin core linking 7-hydroxycoumarin to fluorescein (CCF2-FA). […] In a 384-well microplate, the test inhibitor was incubated with the metallo-β-lactamase enzyme and the substrate for 2 hours at 25° C. […] The IC50 value was determined from semi-logarithmic plots of enzyme inhibition versus inhibitor concentration, with a curve generated using a 4-parameter fit.

Chain of NDM-1 (C7C422 whole entry, looked up, species assumed): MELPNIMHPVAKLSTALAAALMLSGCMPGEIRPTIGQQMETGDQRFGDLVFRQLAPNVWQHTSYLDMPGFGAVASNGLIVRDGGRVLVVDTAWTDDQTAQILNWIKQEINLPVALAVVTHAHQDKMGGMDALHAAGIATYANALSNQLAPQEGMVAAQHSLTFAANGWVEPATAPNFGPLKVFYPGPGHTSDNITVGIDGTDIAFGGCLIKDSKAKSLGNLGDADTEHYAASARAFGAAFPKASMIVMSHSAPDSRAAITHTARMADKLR

On to `Nc1nc2c(-c3ccc(S(=O)(=O)NC4C[C@@H]5CN[C@H]4C5)c(S(N)(=O)=O)c3-c3nnn[nH]3)cccc2s1.O=CO` (stereo partly shown) [Example 119], for which the “Escherichia coli expressing NDM-1 (CLB30016) MITC95” value in data set [1] amounted to 1.563 µM. Besides, the “Serratia marcescens expressing IMP-1 (CL5741) MITC95” value in data set [2] worked out at 1.563 µM. For the same compound, the “Klebsiella pneumoniae expressing VIM-1 (IHMA599644) MITC95” value in data set [3] is 3.125 µM. The “P. aeruginosa expressing IMP-1, efflux − (MB9799) MITC95” value in [4] is 1.563 µM. Also, in data set [5], the “P. aeruginosa expressing IMP-1, efflux + (MB9798) MITC95” value came to 0.7813 µM. In addition, in [6], the Efflux ratio was 0.50.
What is called IC50 is the point on the concentration scale where inhibition reaches its midpoint. As for `NCCNS(=O)(=O)c1ccc(-c2cccc(C(=O)N[C@@H]3CNC[C@H]3O)c2)c(-c2nn[nH]n2)c1S(N)(=O)=O` [Example 344], the results for the IC50 on IMP-1, on NDM-1 and on VIM-1 were 4.26 nM, 1.39 nM and 0.52 nM, respectively. Further, the “Escherichia coli MITC95” value in data set [1] came to 0.7813 µM. In data set [2], the “Serratia marcescens MITC95” value stood at 1.563 µM. In addition, the “Klebsiella pneumoniae MITC95” value in data set [3] was 1.563 µM. In addition, the “P. aeruginosa expressing IMP-1, efflux − (MB9799) MITC95” value in data set [4] is 0.7813 µM. Besides, in [5], the “P. aeruginosa expressing IMP-1, efflux + (MB9798) MITC95” value stood at 1.563 µM.
On to `C[C@H](N)Cc1nc2c(-c3ccc(S(=O)(=O)N[C@@H]4CCNC4)c(S(N)(=O)=O)c3-c3nn[nH]n3)cccc2[nH]1` [Example 441, 4-(2-((S)-2-Aminopropyl)-1H-benzo[d]imidazol-4-yl)-N1-((R)-pyrrolidin-3-yl)-3-(2H-tetrazol-5-yl)benzene-1,2-disulfonamide], for which the concentration for half-maximal inhibition (IC50) at IMP-1 was determined as 1.23 nM; at NDM-1, 0.0811 nM; on VIM-1, 0.15 nM. In addition, the “Escherichia coli MITC95” value in [1] turned out to be 1.563 µM. The “Serratia marcescens MITC95” value in [2] stood at 1.563 µM. For the same compound, the “Klebsiella pneumoniae MITC95” value in [3] amounted to 1.563 µM. Further, the “Concentration of metallo-β-lactamase inhibitor which restores susceptibility of efflux − (MB9799) strain to imipenem” value in data set [4] was 0.7813. For the same compound, the “Concentration of metallo-β-lactamase inhibitor which restores susceptibility of efflux + (MB9798) strain to imipenem” value in [5] stood at 1.563.
As for `C[N+]1(C)CC[C@@H](NS(=O)(=O)c2ccc(-c3cccc4[nH]c(N)nc34)c(-c3nn[nH]n3)c2S(N)(=O)=O)C1.[Cl-]` [Example 233, (R)-3-((4-(2-amino-1H-benzo[d]imidazol-4-yl)-2-sulfamoyl-3-(2H-tetrazol-5-yl)phenyl)sulfonamido)-1,1-dimethylpyrrolidin-1-ium chloride], the half-inhibitory concentration (IC50) worked out at 0.305 nM on IMP-1 and 0.0225 nM on NDM-1. Further, the “Escherichia coli expressing NDM-1 (CLB30016) MITC95” value in data set [1] was determined as 0.3906 µM. For the same compound, the “Serratia marcescens expressing IMP-1 (CL5741) MITC95” value in data set [2] amounted to 0.3906 µM. Moreover, the “Klebsiella pneumoniae expressing VIM-1 (IHMA599644) MITC95” value in [3] stood at 1.563 µM. In addition, the “P. aeruginosa expressing IMP-1, efflux − (MB9799) MITC95” value in data set [4] was determined as 1.563 µM. Besides, in data set [5], the “P. aeruginosa expressing IMP-1, efflux + (MB9798) MITC95” value was determined as 1.563 µM. The Efflux ratio in [6] came out at 1.00.
`C[N+]1(CCN)CC[C@H](NS(=O)(=O)c2ccc(-c3cccc4[nH]c(N)nc34)c(-c3nn[nH]n3)c2S(N)(=O)=O)C1.O=C([O-])O` (stereo partly drawn) [Example 249, (3S)-3-{[4-(2-amino-1H-1,3-benzodiazol-4-yl)-2-sulfamoyl-3-(2H-1,2,3,4-tetrazol-5-yl)benzene]sulfonamido}-1-(2-aminoethyl)-1-methylpyrrolidin-1-ium methaneperoxoate]: the results for the half-maximal inhibitory concentration (IC50) on IMP-1 and at NDM-1 were 0.342 nM and 0.0153 nM, respectively. For the same compound, in data set [1], the “Escherichia coli MITC95” value stood at 0.3906 µM. In addition, the “Serratia marcescens MITC95” value in data set [2] came to 1.563 µM. Further, in data set [3], the “Klebsiella pneumoniae MITC95” value was 1.563 µM. Further, the “P. aeruginosa expressing IMP-1, efflux − (MB9799) MITC95” value in data set [4] is 0.7813 µM. The “P. aeruginosa expressing IMP-1, efflux + (MB9798) MITC95” value in data set [5] is 0.7813 µM. Also, in [6], the Efflux ratio came to 1.00.
As to `Nc1ccc(-c2ccc(S(=O)(=O)N[C@@H]3CNC[C@@H]3N)c(S(N)(=O)=O)c2-c2nn[nH]n2)cn1` [Example 414], the figures for the half-maximal inhibitory concentration (IC50) at IMP-1, on NDM-1 and on VIM-1 were 0.786 nM, 0.329 nM and 0.347 nM, respectively. Also, the “Escherichia coli MITC95” value in data set [1] was 0.3906 µM. The “Serratia marcescens MITC95” value in [2] came out at 0.7813 µM. For the same compound, in data set [3], the “Klebsiella pneumoniae MITC95” value was determined as 3.125 µM. Further, the “Concentration of metallo-β-lactamase inhibitor which restores susceptibility of efflux − (MB9799) strain to imipenem” value in data set [4] is listed as 1.563. Further, the “Concentration of metallo-β-lactamase inhibitor which restores susceptibility of efflux + (MB9798) strain to imipenem” value in data set [5] turned out to be 1.563.
